Results published in patent EP2303911B1, “A SYNTHETIC PEPTIDE CONSISTING OF BONE FORMING PEPTIDE 2(BFP 2) FOR STIMULATING OSTEOBLAST DIFFERENTIATION, AND PHARMACEUTICAL COMPOSITION COMPRISING THE SYNTHETIC PEPTIDE” (Industry Foundation Of Chonnam National University, priority 2008, dated 2012).
No end group written: not given here.

Tested on: cells
Assay: MTT assay for cytotoxicity
Type: cell-based
Conditions: within a range of used concentrations, FIG. 3

## VEHDKEFFHPRYHHR [BFP 2, Val-Glu-His-Asp-Lys-Glu-Phe-Phe-His-Pro-Arg-Tyr-His-His-Arg]
  cytotoxicity: not toxic to cells
